Where a SMILES comes first, the peptide text is derived from it.
Assay: Peptide was tested for inhibition constant for competitive inhibition using Suc-AAPA-pNa and Pancreatic elastase

Row | Ki [mM] | SMILES
1 | 5.8 | CC[C@H](C)[C@H](NC(=O)[C@H](C)NC(=O)[C@H](CCC(=O)O)NC(=O)[C@H](CC(C)C)NC(=O)[C@H](Cc1ccccc1)NC(=O)[C@@H](N)CCSC)C(=O)N1CCC[C@H]1C(=O)N[C@@H](CCSC)C(=O)N[C@@H](CO)C(=O)O
2 | 0.1 | CC[C@H](C)[C@H](NC(=O)[C@H](CO)NC(=O)[C@H](CCSC)NC(=O)[C@@H]1CCCN1C(=O)[C@@H](NC(=O)[C@H](C)NC(=O)[C@H](CCC(=O)O)NC(=O)[C@H](CC(C)C)NC(=O)[C@H](Cc1ccccc1)NC(=O)[C@@H](N)CCSC)[C@@H](C)CC)C(=O)O
3 | 1.1 | CSCC[C@H](N)C(=O)N[C@@H](Cc1ccccc1)C(=O)N[C@@H](CC(C)C)C(=O)N[C@@H](C)C(=O)O [(S)-2-{(S)-2-[(S)-2-((S)-2-Amino-4-methylsulfanyl-butyrylamino)-3-phenyl-propionylamino]-4-methyl-pentanoylamino}-propionic acid] (H-MFLA-OH)
